Peptide text beside a SMILES is read from it.
Columns and labels:
δ opioid receptors = biological target: T1, δ opioid receptors (Mus musculus, UniProt P32300); assay: MVD assay: antagonism of δ agonist inhibition of electrically evoked contractions of the mouse vas deferens; settings: comparison with the patent's best compounds
T1 construct: electrically evoked contractions of the mouse vas deferens (MVD); from tissue; host or cells: isolated mouse vas deferens
From the text: Biosassys based on inhibition of electrically evoked contractions of the mouse vas deferens (MVD) and of the guinea pig ileum (GPI). In the GPI assay the opioid effect is primarily mediated by μ opioid receptors, whereas in the MVD assay the inhibition of the contractions is mostly due to interaction with δ opioid receptors. Antagonist potencies in these assays are expressed as so-called Ke -values (H. W. Kosterlitz & A. J. Watt, Br. J. Pharmacol. 33, 266-276 (1968)).
The GPI and MVD bioassays were carried out as reported in P. W. Schiller et al Biochem. Biophys. Res. Commun 85, 1332-1338 (1978) and J. DiMaio et al, J. Med. Chem 25 1432-1438 (1982). A log dose-response curve was determind with [Leu^5 ]enkephalin as standard for each ileum and vas preparation, and IC50 values of the compounds being tested were normalized according to A. A Waterfield et al Eur. J. Pharmacod 58, 11-18 (1979). Ke values for the TIPP-related antagonists were determind from the ratio of IC50 values (DR) obtained in the presence and absence of a fixed antagonist concentration (a) (Ke =a/(DR-1) H. W. Kosterlitz & A. J. Watt, Br. J. Pharmacol. 33, 266-276 (1968). These determinations were made with the MVD assay, using three different δ -selective agonists ([Leu^5 ] enkephalin, DPDPE and [D-Ala^2 ]deltorphin I.

δ opioid receptor = biological target: T2, δ opioid receptor (Rattus norvegicus, UniProt P33533); assay: δ opioid receptor binding assay, displacement of δ-selective radioligand from rat brain membranes; settings: for Ki^μ /Ki^δ (δ-selectivity): ratio of μ and δ binding constants
T2 construct: from tissue; host or cells: rat brain (without cerebellum) membranes, Sprague-Dawley
T2 sequence (P33533 whole entry): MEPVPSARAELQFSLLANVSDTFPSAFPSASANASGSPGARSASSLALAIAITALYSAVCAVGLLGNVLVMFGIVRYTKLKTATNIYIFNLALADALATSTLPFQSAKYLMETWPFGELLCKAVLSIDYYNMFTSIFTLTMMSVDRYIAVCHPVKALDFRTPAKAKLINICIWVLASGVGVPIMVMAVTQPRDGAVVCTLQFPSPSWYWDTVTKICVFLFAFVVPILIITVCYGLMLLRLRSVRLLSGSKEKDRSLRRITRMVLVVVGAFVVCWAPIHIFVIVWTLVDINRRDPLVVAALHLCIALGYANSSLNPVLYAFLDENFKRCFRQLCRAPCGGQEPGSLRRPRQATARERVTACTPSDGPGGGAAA
From the text: (§1) In the case of κ-ligands guinea pig brain homogenates were used, since the relative proportion of κ-binding sites is higher in guinea pig brain than in rat brain. The experimental procedure being used in our laboratory represents a modified version of the binding assay described by Pastemak et al. (Mol. Pharmacol. 11,340-351, (1975)). Male Sprague-Dawley rats (300-350 g) from the Canadian Breeding Laboratories were decapitated and after removal of the cerebellum the brains were homogenized in 30 volumes of ice-cold standard buffer (50 mM Tris-HCl, pH 7.7). After centrifugation at 30,000×g for 30 min at 4° C. the membranes were reconstituted in the original volume of standard buffer and incubated for 30 min at 37° C. (to release bound endogenous ligands). […] The incubation was terminated by filtration through Whatman GF/B filters under vacuum at 4° C. Following two washings with 5 ml portions of ice-cold standard buffer the filters were transferred to scintillation vials and treated with 1 ml Protosol (New England Nuclear) for 30 min prior to the addition of 0.5 ml acetic acid and 10 ml Aquasol (New England Nuclear). After shaking for 30 min the vials were counted at an efficiency of 40-45%. All experiments were performed in duplicates and repeated at least three times. […] Values of half-maximal inhibition (IC50) of specific binding were obtained graphically from semilogarithmic plots.

μ opioid receptor = biological target: T3, μ opioid receptor (Rattus norvegicus, UniProt P33535); assay: μ opioid receptor binding assay, displacement of [3H]DAMGO from rat brain membranes
T3 construct: from tissue; host or cells: rat brain (without cerebellum) membranes, Sprague-Dawley
T3 sequence (P33535 whole entry): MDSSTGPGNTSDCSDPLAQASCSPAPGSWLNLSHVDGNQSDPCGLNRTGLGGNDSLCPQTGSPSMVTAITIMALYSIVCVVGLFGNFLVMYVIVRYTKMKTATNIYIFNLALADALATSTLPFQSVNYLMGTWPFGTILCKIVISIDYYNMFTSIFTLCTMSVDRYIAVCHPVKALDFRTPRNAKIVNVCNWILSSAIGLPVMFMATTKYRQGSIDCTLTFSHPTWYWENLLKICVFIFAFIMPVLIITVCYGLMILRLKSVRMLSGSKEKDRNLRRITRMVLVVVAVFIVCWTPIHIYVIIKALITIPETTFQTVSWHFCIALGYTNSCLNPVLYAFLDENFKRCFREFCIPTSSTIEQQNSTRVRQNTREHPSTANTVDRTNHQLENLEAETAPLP
From the text: as §1

μ opioid receptors [1] = biological target: T4, μ opioid receptors (Cavia porcellus, UniProt P97266); assay: GPI assay: inhibition of electrically evoked contractions of the guinea pig ileum; settings: read-out: IC50 (μ agonist potency) in the GPI assay
T4 sequence (P97266 whole entry, looked up): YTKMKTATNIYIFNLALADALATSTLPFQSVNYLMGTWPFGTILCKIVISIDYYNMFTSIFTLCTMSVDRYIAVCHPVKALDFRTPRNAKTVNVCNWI
From the text: In the GPI assay the opioid effect is primarily mediated by μ opioid receptors, whereas in the MVD assay the inhibition of the contractions is mostly due to interaction with δ opioid receptors.

μ opioid receptors [2] = biological target: T4, μ opioid receptors; settings: literature value, Portoghese J. Med. Chem. 34, 1757 (1991); cited from earlier work

T1 sequence (P32300 whole entry): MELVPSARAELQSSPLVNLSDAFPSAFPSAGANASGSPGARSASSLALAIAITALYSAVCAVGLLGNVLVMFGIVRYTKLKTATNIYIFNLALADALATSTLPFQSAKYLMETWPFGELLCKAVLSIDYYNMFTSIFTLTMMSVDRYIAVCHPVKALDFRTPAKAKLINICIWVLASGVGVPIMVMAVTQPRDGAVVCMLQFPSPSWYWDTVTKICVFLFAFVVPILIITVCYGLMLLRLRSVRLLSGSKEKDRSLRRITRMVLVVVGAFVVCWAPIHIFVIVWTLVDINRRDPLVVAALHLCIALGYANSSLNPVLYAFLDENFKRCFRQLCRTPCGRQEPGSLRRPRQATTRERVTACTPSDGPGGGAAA

SMILES	antagonist potency in the MVD assay compared with the most potent and selective δ antagonists of the patent (δ opioid receptors)	δ-selectivity compared with the most potent and selective δ antagonists of the patent (δ opioid receptor; comparison with the patent's best compounds)	Ki^μ /Ki^δ (δ-selectivity) (δ opioid receptor)	Ki (μ opioid receptor)	Ki (δ opioid receptor)	IC50 (μ opioid receptors [1])	Ke (antagonist properties) in the guinea pig ileum (GPI) assay (μ opioid receptors [2])
C=CCN(CC=C)[C@@H](Cc1ccc(O)cc1)C(=O)NC(C)(C)C(=O)NC(C)(C)C(=O)N[C@@H](Cc1ccccc1)C(=O)N[C@@H](CC(C)C)C(=O)O [ICI 174864, N,N--diallyl--Tyr--Aib--Aib--Phe--Leu--OH, reference compound] (HELM PEPTIDE1{[C=CCN(CC=C)[C@@H](Cc1ccc(O)cc1)C(=O)[*:2]].[Aib].[Aib].F.L}$$$$V2.0)	20 times less potent	40 times less					
N[C@@H](Cc1ccc(O)cc1)C(=O)N1Cc2ccccc2C[C@H]1C(=O)N[C@@H](Cc1ccccc1)C(=O)O [H--Tyr--Tic--Phe--OH] (HELM PEPTIDE1{Y.[Tic].F}$$$$V2.0)			141				
NC(=O)[C@H](Cc1ccccc1)NC(=O)[C@@H]1Cc2ccccc2CN1C(=O)[C@@H](N)Cc1ccc(O)cc1 [H--Tyr--Tic--Phe--NH2] (HELM PEPTIDE1{Y.[Tic].F.[am]}$$$$V2.0)			52.0	624 ± 79 nM	12 ± 1.3 nM		
NC(=O)[C@H](Cc1c[nH]c2ccccc12)NC(=O)[C@H](Cc1ccccc1)NC(=O)[C@@H]1Cc2ccccc2CN1C(=O)[C@@H](N)Cc1ccc(O)cc1 [H--Tyr--Tic--Phe--Trp--NH2] (HELM PEPTIDE1{Y.[Tic].F.W.[am]}$$$$V2.0)			258	312 ± 75 nM	1.21 ± 0.19 nM		
NC(=O)[C@H](Cc1ccccc1)NC(=O)[C@H](Cc1ccccc1)NC(=O)[C@@H]1Cc2ccccc2CN1C(=O)[C@@H](N)Cc1ccc(O)cc1 [H--Tyr--Tic--Phe--Phe--NH2] (HELM PEPTIDE1{Y.[Tic].F.F.[am]}$$$$V2.0)			26.3			1700 ± 220 nM	
N[C@@H](Cc1ccc(O)cc1)C(=O)N1Cc2ccccc2C[C@H]1C(=O)N[C@@H](Cc1c[nH]c2ccccc12)C(=O)N[C@@H](Cc1ccc([N+](=O)[O-])cc1)C(=O)O [H--Tyr--Tic--Trp--Phe(p-NO2)--OH] (HELM PEPTIDE1{Y.[Tic].W.[O=C(O)[C@H](Cc1ccc([N+](=O)[O-])cc1)N[*:1]]}$$$$V2.0)			4610	1520 ± 42 nM	0.33 ± 0.004 nM		
N[C@@H](Cc1ccc(O)cc1)C(=O)N1Cc2ccccc2C[C@H]1C(=O)N[C@@H](Cc1c[nH]c2ccccc12)C(=O)N[C@@H](Cc1ccccc1)C(=O)O [H--Tyr--Tic--Trp--Phe--OH] (HELM PEPTIDE1{Y.[Tic].W.F}$$$$V2.0)			5950	1790 ± 380 nM	0.301 ± 0.042 nM		
N[C@@H](Cc1ccc(O)cc1)C(=O)N1Cc2ccccc2C[C@H]1C(=O)N[C@@H](Cc1ccccc1)C(=O)N[C@@H](Cc1ccc([N+](=O)[O-])cc1)C(=O)O [H--Tyr--Tic--Phe--Phe(p-NO2)--OH] (HELM PEPTIDE1{Y.[Tic].F.[O=C(O)[C@H](Cc1ccc([N+](=O)[O-])cc1)N[*:1]]}$$$$V2.0)			4110	2890 ± 660 nM	0.703 ± 0.099 nM		
Oc1ccc2c3c1O[C@H]1c4[nH]c5ccccc5c4C[C@@]4(O)[C@@H](C2)N(CC2CC2)CC[C@]314 [Naltrindole, naltrindole, reference compound]					0.687 ± 0.1 nM		29 nM
NC(=O)[C@H](Cc1ccccc1)NC(=O)[C@H](Cc1c[nH]c2ccccc12)NC(=O)[C@@H]1Cc2ccccc2CN1C(=O)[C@@H](N)Cc1ccc(O)cc1 [H--Tyr--Tic--Trp--Phe--NH2] (HELM PEPTIDE1{Y.[Tic].W.F.[am]}$$$$V2.0)			709	176 ± 21 nM	0.248 ± 0.009 nM		

Reference: patent US5455230A, “Delta opioid receptor antagonists and their use as analgesic agents” (Aktiebolaget Astra, priority 1993, dated 1995)
